Laboratory results published in paper PMC11476959, “Structural Insights and Catalytic Mechanism of 3-Hydroxybutyryl-CoA Dehydrogenase from Faecalibacterium Prausnitzii A2-165” (International Journal of Molecular Sciences, 2024).

Tests used:
[1] = biological target: 3-hydroxybutyryl-CoA dehydrogenase of Faecalibacterium prausnitzii A2-165 (Faecalibacterium prausnitzii A2-165); test: SEC-MALS; 2.018 mg/mL A2HBD on Superdex 200 Increase, 20 mM Tris-HCl pH 8.0, 150 mM NaCl, 0.3 mL/min; main peak 92% of the scattered mass
[2] = biological target: T1, 3-hydroxybutyryl-CoA dehydrogenase of A2-165 (A2HBD; A2-165 BHBD) (Faecalibacterium duncaniae, UniProt C7H5K9); test: microscale thermophoresis; assay type: binding
T1 construct: gene FAEPRAA2165_01580; full-length (Met1-Leu290 printed, 867 bp gene), C-terminal 6xHis kept, pET21a, E. coli BL21(DE3); hexamer in solution; N-terminus MKIGVI and C-terminus TPVDQ-LE(H6) from the printed primers; Leu290 probably comes from the XhoI site
T1 sequence (C7H5K9 entry or part of it): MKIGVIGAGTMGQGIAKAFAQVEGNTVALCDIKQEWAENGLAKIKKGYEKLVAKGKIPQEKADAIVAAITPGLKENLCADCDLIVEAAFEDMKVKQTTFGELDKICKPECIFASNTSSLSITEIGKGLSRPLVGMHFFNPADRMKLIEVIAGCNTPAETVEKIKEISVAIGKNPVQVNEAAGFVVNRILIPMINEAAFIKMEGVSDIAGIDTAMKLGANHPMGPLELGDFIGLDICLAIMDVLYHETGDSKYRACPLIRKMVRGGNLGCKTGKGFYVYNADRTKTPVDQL

Row | Compound | stoichiometry N [1] | Kd [2] [µM]
1 | 3-hydroxybutyryl-CoA dehydrogenase of Faecalibacterium prausnitzii A2-165 (enzyme) | 6 | 
2 | CC(=O)CC(=O)SCCNC(=O)CCNC(=O)[C@H](O)C(C)(C)COP(=O)(O)OP(=O)(O)OC[C@H]1O[C@@H](n2cnc3c(N)ncnc32)[C@H](O)[C@@H]1OP(=O)(O)O [acetoacetyl-CoA] |  | 23.9
3 | NC(=O)c1ccc[n+]([C@@H]2O[C@H](COP(=O)(O)OP(=O)(O)OC[C@H]3O[C@@H](n4cnc5c(N)ncnc54)[C@H](O)[C@@H]3O)[C@@H](O)[C@H]2O)c1 [NAD^+] |  | 347
